The source of these data is patent publication US5196094A, “Separation of 1,1,1-trichloroethane from the lower alcohols by extractive distillation” (priority 1991, dated 1993).

Where a name gives a salt, the structure may show the parent alone.

Holding throughout (assay type): physicochemical
Data set [1] is described as follows: Vapor-liquid equilibrium still, separation of 1,1,1-trichloroethane from methanol.
The nature of data set [2]: Vapor-liquid equilibrium still, separation of 1,1,1-trichloroethane from 2-butanol.
Data set [3] can be described thus: Vapor-liquid equilibrium still, separation of 1,1,1-trichloroethane from ethanol.
Data set [4] in a line: Vapor-liquid equilibrium still, separation of 1,1,1-trichloroethane from isopropanol.
Data set [5] is described as follows: Vapor-liquid equilibrium still, separation of 1,1,1-trichloroethane from n-propanol.
Setting [6] is: 1,1,1-trichloroethane from methanol, vapor-liquid equilibrium still.
Where [7] appears, read: * Brings out Ethanol as Overhead.
Setting [8] is: 1,1,1-trichloroethane from 2-butanol, vapor-liquid equilibrium still.
Setting [9] is: 1,1,1-trichloroethane from ethanol.
Setting [10] is: 1,1,1-trichloroethane from n-propanol, vapor-liquid equilibrium still.

In the case of 1-Methoxy-2-acetoxy propanol, the “Relative Volatility” value in data set [1] (setting [6]) was found to be 2.3.

For `CC(=O)O[C@@H]1C[C@H]2CC[C@]1(C)C2(C)C` (racemic) [Isobornyl acetate], the entries for the “Relative Volatility” value in data set [2], in data set [1] and in data set [3] (setting [7]) were 1.7, 2.5 and 1.6, respectively.

As to `COCC(C)OC(C)=O` (centres unmarked) [1-Methoxy-2-acetoxy propane], in data set [2] (setting [8]), the “Relative Volatility” value came to 2.0.

On to `COCC(C)OC(C)=O` (centres unmarked) [1-Methoxy-2-propanol acetate], for which the “Relative Volatility” value turned out to be 4.3 in data set [2] (setting [8]), 1.7 in data set [4] and 1.7 in data set [1].

In the case of `COCC(C)O` (centres unmarked) [1-Methoxy-2-propanol], the “Relative Volatility” value in data set [3] (setting [9]) is on record as 2.9.

Turning to `CN1CCCC1=O` [1-Methyl-2-pyrrolidinone], the “Relative Volatility” value is given as 3.6 in data set [2] (setting [8]), 2.7 in data set [1] and 2.5 in data set [3] (setting [9]).

For `CCC[N+](=O)[O-]` [1-Nitropropane], the “Relative Volatility” value in data set [5] is 1.3; in data set [2], 1.6; in data set [1] (setting [6]), 2.1.

Consider `CC(=O)CC(C)=O` [2,4-Pentanedione], for which the results for the “Relative Volatility” value in data set [5], in data set [2] and in data set [1] were 1.6, 1.8 and 2.7, respectively.

As to `CC(C)CC(=O)CC(C)C` [2,6-Dimethyl-4-heptanone], the “Relative Volatility” value in data set [3] (setting [9]) was found to be 1.65.

In the case of `CCC(CC)CO` [2-Ethyl butanol], the entries for the “Relative Volatility” value in data set [2] (setting [8]) and in data set [1] were 3.3 and 1.4, respectively.

As to `CCCCC(CC)COC(C)=O` (centres unmarked) [2-Ethyl hexyl acetate], the “Relative Volatility” value in data set [2] came out at 1.6; in data set [4], 1.3; in data set [1] (setting [6]), 2.0.

As to `CCCCCC(C)=O` [2-Heptanone], the “Relative Volatility” value in data set [2] turned out to be 1.4; in data set [1] (setting [6]), 3.2; in data set [3] (setting [9]), 1.3.

For `CCC(C)COC(C)=O` (centres unmarked) [2-Methyl butyl acetate], in data set [4], the “Relative Volatility” value is given as 1.35.

`CC(C)[N+](=O)[O-]` [2-Nitropropane]: the figures for the “Relative Volatility” value in data set [5], in data set [2] and in data set [1] (setting [6]) were 1.4, 1.6 and 2.0, respectively.

As to `CCCCCCC(C)O` (centres unmarked) [2-Octanol], the “Relative Volatility” value in data set [2] (setting [8]) came out at 2.6; in data set [1] (setting [6]), 2.8.

Regarding `CCCCCCC(C)=O` [2-Octanone], the “Relative Volatility” value in data set [5] was 1.25.

On to `CCCCCCCCCC(C)=O` [2-Undecanone], for which the “Relative Volatility” value in data set [3] (setting [9]) was found to be 1.4.

`CC(=O)C(C)(C)C` [3,3-Dimethyl-2-butanone]: the results for the “Relative Volatility” value in data set [5] and in data set [3] (setting [9]) were 1.4 and 1.65, respectively.

For the compound `CCCCC(=O)CC` [3-Heptanone], in data set [5], the “Relative Volatility” value is 1.25.

As to `CC(C)CCO` [3-Methyl-1-butanol], the “Relative Volatility” value in data set [3] (setting [9]) was found to be 2.9.

In the case of `CC(=O)OC(C)CC(C)C` (centres unmarked) [4-Methyl pentyl acetate-2], the “Relative Volatility” value in data set [2] (setting [8]) is on record as 1.7; in data set [1] (setting [6]) it was 2.9; in data set [3] (setting [7]) it was 1.45.

Regarding `CC(C)CC(C)O` (centres unmarked) [4-Methyl-2-pentanol], the results for the “Relative Volatility” value in data set [2] (setting [8]), in data set [1] (setting [6]) and in data set [3] (setting [9]) were 3.2, 4.2 and 2.1, respectively.

Regarding `CC(=O)CC(C)C` [4-Methyl-2-pentanone], the results for the “Relative Volatility” value in data set [5] and in data set [3] (setting [9]) were 1.4 and 1.6, respectively.

With `CC(=O)CCC(C)C` [5-Methyl-2-hexanone], the “Relative Volatility” value in data set [5] (setting [10]) was 1.3.

`CC(=O)c1ccccc1` [Acetophenone]: the “Relative Volatility” value is recorded as 1.7 in data set [5], 3.0 in data set [2], 2.3 in data set [1] (setting [6]) and 1.35 in data set [3] (setting [9]).

On to `N#CCCCCC#N` [Adiponitrile], for which the “Relative Volatility” value in data set [4] amounted to 1.25.

In the case of `CCCCCOC(C)=O` [Amyl acetate], the “Relative Volatility” value is reported as 1.5 in data set [2], 1.4 in data set [4] and 2.1 in data set [1] (setting [6]).

In the case of `COc1ccccc1` [Anisole], in data set [3] (setting [7]), the “Relative Volatility” value is on record as 1.25.

Regarding `CC(=O)OCc1ccccc1` [Benzyl acetate], the “Relative Volatility” value in data set [2] (setting [8]) turned out to be 1.7; in data set [4] it was 1.55; in data set [1] it was 2.5; in data set [3] (setting [9]) it was 1.2.

Take `OCc1ccccc1` [Benzyl alcohol]: the “Relative Volatility” value in data set [2] (setting [8]) turned out to be 3.5.

For `O=C(OCc1ccccc1)c1ccccc1` [Benzyl benzoate], the “Relative Volatility” value in data set [5] (setting [10]) was found to be 1.6.

In the case of `CC(=O)CC(C)(C)O` [Diacetone alcohol], in data set [3] (setting [9]), the “Relative Volatility” value is reported as 2.7.

Consider `CCOCCOCCOCC` [Diethylene glycol diethyl ether], for which the “Relative Volatility” value in data set [5] was 1.6; in data set [2], 1.6; in data set [1] it was 2.7; in data set [3] (setting [7]) it was 1.2.

For the compound `CCOCCOCCOC(C)=O` [Diethylene glycol ethyl ether acetate], the figures for the “Relative Volatility” value in data set [2] (setting [8]) and in data set [1] (setting [6]) were 2.1 and 2.8, respectively.

With `CC(C)CC(O)CC(C)C` [Diisobutyl carbinol], the “Relative Volatility” value in data set [2] is listed as 2.2.

As to `CC(C)CC(=O)CC(C)C` [Diisobutyl ketone], the “Relative Volatility” value in data set [2] stood at 1.5; in data set [1] it was 2.7; in data set [3] (setting [9]), 1.7.

As for `CCOCCC(=O)OCC` [Ethyl 3-ethoxy propionate], the “Relative Volatility” value in data set [3] (setting [9]) came out at 1.6.

On to `CCOC(=O)CC(C)=O` [Ethyl acetoacetate], for which the “Relative Volatility” value in data set [2] is recorded as 1.8; in data set [1] (setting [6]), 2.8; in data set [3] (setting [9]) it was 1.7.

Regarding `CCOC(=O)c1ccccc1` [Ethyl benzoate], the “Relative Volatility” value in data set [3] (setting [9]) is 1.55.

`CCCC(=O)OCC` [Ethyl butyrate]: the “Relative Volatility” value in data set [4] is 1.3; in data set [3] (setting [7]) it was 1.2.

Take `CCOC(=O)CC(C)C` [Ethyl isovalerate]: the “Relative Volatility” value was 1.6 in data set [2], 1.6 in data set [4], 2.7 in data set [1] and 1.4 in data set [3] (setting [9]).

For the compound `CCCCC(=O)OCC` [Ethyl n-valerate], the “Relative Volatility” value in data set [2] was 1.5; in data set [4] it was 1.35; in data set [1], 2.7; in data set [3] (setting [9]), 1.6.

As for `CCOC(=O)Cc1ccccc1` [Ethyl phenyl acetate], the “Relative Volatility” value in data set [3] (setting [7]) is given as 1.5.

`CCOCCOC(C)=O` [Ethylene glycol ethyl ether acetate]: the “Relative Volatility” value in data set [1] is listed as 2.5; in data set [3] (setting [7]) it was 1.5.

Take `CCCCCCOCCO` [Ethylene glycol hexyl ether]: the “Relative Volatility” value in data set [2] is 2.9; in data set [1], 3.1.

`CCCCCCCO` [Heptyl alcohol]: the “Relative Volatility” value is given as 3.1 in data set [2] and 3.6 in data set [1].

As for `CCCCCCOC(C)=O` [Hexyl acetate], the results for the “Relative Volatility” value in data set [2] and in data set [4] were 1.6 and 1.35, respectively.

`CC(=O)OCCC(C)C` [Isoamyl acetate]: the “Relative Volatility” value in data set [3] (setting [9]) is given as 1.25.

Take `CC(=O)OCC(C)C` [Isobutyl acetate]: the “Relative Volatility” value in data set [4] stood at 1.35.

Consider `CC(C)COC(=O)C(C)C` [Isobutyl isobutyrate], for which the “Relative Volatility” value in data set [2] is given as 1.5; in data set [4], 1.3; in data set [3] (setting [9]) it was 3.3.

Turning to `CC(C)CCCCCCCO` [Isodecyl alcohol], the “Relative Volatility” value is 2.4 in data set [2] (setting [8]) and 2.3 in data set [1] (setting [6]).

`CC(C)CCCCCO` [Isooctyl alcohol]: the “Relative Volatility” value in data set [2] (setting [8]) is 2.4; in data set [1], 2.5; in data set [3] (setting [9]), 2.1.

In the case of `CC(=O)OC(C)C` [Isopropyl acetate], the “Relative Volatility” value in data set [3] (setting [9]) amounted to 1.6.

With `COC(=O)c1ccccc1` [Methyl benzoate], the “Relative Volatility” value in data set [5] was determined as 1.25.

Turning to `CC(=O)CCC(C)C` [Methyl isoamyl ketone], the results for the “Relative Volatility” value in data set [2] (setting [8]), in data set [1] (setting [6]) and in data set [3] (setting [9]) were 1.6, 2.3 and 2.0, respectively.

On to `CC(=O)CC(C)C` [Methyl isobutyl ketone], for which the results for the “Relative Volatility” value in data set [5] and in data set [3] (setting [9]) were 1.5 and 1.85, respectively.

For the compound `O=[N+]([O-])c1ccccc1` [Nitrobenzene], the entries for the “Relative Volatility” value in data set [5], in data set [2] and in data set [1] were 1.4, 1.6 and 2.5, respectively.

With `CC[N+](=O)[O-]` [Nitroethane], the “Relative Volatility” value in data set [4] turned out to be 1.3; in data set [1] it was 2.8.

`CC(=O)Oc1ccccc1` [Phenyl acetate]: the “Relative Volatility” value in data set [4] is recorded as 1.25.

Consider `COCC(C)OC(C)=O` (centres unmarked) [Propylene glycol methyl ether acetate], for which the “Relative Volatility” value was found to be 1.8 in data set [2] and 2.3 in data set [1] (setting [6]).

`OCC1CCCO1` (centres unmarked) [Tetrahydro furfuryl alcohol]: the figures for the “Relative Volatility” value in data set [2] (setting [8]), in data set [1] (setting [6]) and in data set [3] (setting [9]) were 3.2, 3.3 and 2.3, respectively.

Regarding `CCCCCOC(C)=O` [n-Amyl acetate], the “Relative Volatility” value in data set [3] (setting [7]) was determined as 1.85.

With `CCCCOC(C)=O` [n-Butyl acetate], the “Relative Volatility” value in data set [3] (setting [7]) came out at 3.5.

Regarding `CCCCCCCCCCO` [n-Decanol], the “Relative Volatility” value worked out at 2.3 in data set [2] (setting [8]) and 2.5 in data set [1].

Take `CCCCCCOC=O` [n-Hexyl formate]: the “Relative Volatility” value in data set [2] is 1.5; in data set [1] it was 1.7; in data set [3] (setting [9]) it was 1.4.

On to `CCCOC(C)=O` [n-Propyl acetate], for which the “Relative Volatility” value in data set [3] (setting [9]) was found to be 1.85.

As to Dipropylene glycol methyl ether, the results for the “Relative Volatility” value in data set [1] (setting [6]) and in data set [3] (setting [9]) were 4.3 and 1.85, respectively.

For the compound Tripropylene glycol methyl ether, the “Relative Volatility” value in data set [1] (setting [6]) came to 3.2.
